In US20140343008A1, “HEPATITIS C TREATMENT” (Gilead Pharmasset LLC, priority 2013, published 2014):
Like-named read-outs stand apart in the source and are kept apart here. Blank lines part the entries; values can stand above or below the molecule they belong to.

Columns and labels:
[1] = test system: human colon carcinoma cell line (caco-2); assay: Bidirectional permeability of sofosbuvir in caco-2 monolayers; settings: for Papp of sofosbuvir, Forward, Average / Papp of sofosbuvir, Forward, Repat 2 / Papp of sofosbuvir, Forward, Repeat 1 / Papp of sofosbuvir, Reverse, Average / Papp of sofosbuvir, Reverse, Repat 2 / Papp of sofosbuvir, Reverse, Repeat 1 / effect of coincubation on permeability/efflux of sofosbuvir, fold increase: human, Caco-2, 120 min, pH 7.4
Procedure: (§1) Caco-2 human intestinal epithelial cell monolayers cultured for twenty-one to twenty-eight days were plated on 12 well Transwell® dual chamber plates.
(§2) Assays were run in duplicate (n=2) in one to two separate experiments. Assay buffer at pH 7.4 was placed in both chambers. Hanks buffer with 1% BSA was used in receiver compartment.
(§3) Apical side was dosed for apical-to-basolateral (A to B) assessment. Basolateral side was dosed for basolateral-to-apical (B to A) assessment. Donor side was sampled at time points of 0 and 120 minutes.
(§4) Receiver side was sampled at time points: 60 and 120 minutes.
(§5) The apparent permeability, Papp, and % recovery were calculated as follows: […]
(§6) Where, dR/dt is the slope of the cumulative concentration in the receiver compartment versus time in μM/s based on receiver concentrations measured at 60 and 120 minutes. Vr and Vd are the volumes in the receiver and donor compartment in cm^3, respectively. A is the area of the cell monolayer (1.12 cm^2). D0 and D120 are the measured donor concentrations at the beginning and end of the experiment, respectively. R120 is the receiver concentration at the end of the experiment (120 minutes).

BCRP = biological target: T1, BCRP (Homo sapiens, UniProt Q9UNQ0); assay: In vitro drug transporter inhibition, BCRP; format: in vitro ADME
T1 sequence (Q9UNQ0 1-655): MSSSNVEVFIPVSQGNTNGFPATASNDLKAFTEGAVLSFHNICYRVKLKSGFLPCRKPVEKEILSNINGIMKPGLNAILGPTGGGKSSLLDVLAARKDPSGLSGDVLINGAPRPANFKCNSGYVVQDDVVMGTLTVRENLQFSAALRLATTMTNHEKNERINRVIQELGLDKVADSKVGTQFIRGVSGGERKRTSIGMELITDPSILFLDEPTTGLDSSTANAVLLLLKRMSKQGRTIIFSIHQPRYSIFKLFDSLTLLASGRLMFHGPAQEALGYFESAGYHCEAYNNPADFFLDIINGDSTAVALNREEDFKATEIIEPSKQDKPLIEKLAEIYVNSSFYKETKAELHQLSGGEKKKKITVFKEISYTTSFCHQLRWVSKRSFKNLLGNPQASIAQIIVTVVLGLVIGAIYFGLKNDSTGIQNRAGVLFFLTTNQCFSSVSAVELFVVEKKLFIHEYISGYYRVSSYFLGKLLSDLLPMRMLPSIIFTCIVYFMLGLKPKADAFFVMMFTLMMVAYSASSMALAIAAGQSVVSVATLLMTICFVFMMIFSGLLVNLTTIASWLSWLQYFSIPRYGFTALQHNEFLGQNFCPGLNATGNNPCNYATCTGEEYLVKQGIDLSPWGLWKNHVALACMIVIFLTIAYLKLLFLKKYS
Excerpt: (§7) Based on the results of Example 1, it was contemplated that Compound I increased the exposure of sofosbuvir by inhibiting the activities of one or more drug transporters. This example carried out in vitro experiments to test whether Compound I inhibited any of the potentially relevant drug transporters, […], BCRP and P-gp.

[2] = Phase I pharmacokinetic study of the combination of Compound I and sofosbuvir in healthy volunteers; format: in vivo, human; settings: for Ctau, Mean / Cmax / AUC / AUC(0-inf) / AUC(0-t): n = 18; for Cmax / AUC / AUC(0-inf) / AUC(0-t): both sexes, human; for AUC: read-out: AUCtau, Mean; for AUC(0-inf): healthy volunteers, read-out: AUCinf, Mean; for AUC(0-t): read-out: AUClast, Mean
Excerpt: This example studied the pharmacokinetics (PK) of the combination of Compound I and sofosbuvir (SOF), along with two metabolites of SOF, Metabolite I and II, in healthy volunteers, as part of a Phase I clinical study for Compound I.
This was a randomized, open label, single-center, multiple-dose study that enrolled Healthy males and non-pregnant, non-lactating females from 18 to 45 years old. The duration of the study was up to 38 days, and duration of the treatment was 28 days.
Additional specific exclusion criteria included, (1) use of over the counter (OTC) or prescribed medications that affect gastric pH (i.e., antacids, H2 receptor antagonists (H2RAs), and/or proton-pump inhibitors (PPIs)) 28 days prior to baseline and (2) history of severe peptic ulcer disease, GERD, or other stomach acid diseases requiring prolonged (>6 months) medication or surgical therapy to modify gastric pH. […]
Plasma concentrations and pharmacokinetic parameters for the compounds were listed and summarized using descriptive statistics by treatment. In addition, an analysis of variance (ANOVA) using a mixed-effects model with treatment, period, sequence as fixed effects and subject within sequence as a random effect were fitted to the natural logarithmic transformation of PK parameters (AUCinf, AUClast, and Cmax).
The 90% confidence intervals were constructed for the ratio of geometric least-squares means of primary PK parameters for each of the test treatments (as shown in Table 1).

P-gp = P-gp (Homo sapiens, UniProt P08183); assay: In vitro drug transporter inhibition, P-gp; format: in vitro ADME
Sequence of P-gp (P08183 whole entry): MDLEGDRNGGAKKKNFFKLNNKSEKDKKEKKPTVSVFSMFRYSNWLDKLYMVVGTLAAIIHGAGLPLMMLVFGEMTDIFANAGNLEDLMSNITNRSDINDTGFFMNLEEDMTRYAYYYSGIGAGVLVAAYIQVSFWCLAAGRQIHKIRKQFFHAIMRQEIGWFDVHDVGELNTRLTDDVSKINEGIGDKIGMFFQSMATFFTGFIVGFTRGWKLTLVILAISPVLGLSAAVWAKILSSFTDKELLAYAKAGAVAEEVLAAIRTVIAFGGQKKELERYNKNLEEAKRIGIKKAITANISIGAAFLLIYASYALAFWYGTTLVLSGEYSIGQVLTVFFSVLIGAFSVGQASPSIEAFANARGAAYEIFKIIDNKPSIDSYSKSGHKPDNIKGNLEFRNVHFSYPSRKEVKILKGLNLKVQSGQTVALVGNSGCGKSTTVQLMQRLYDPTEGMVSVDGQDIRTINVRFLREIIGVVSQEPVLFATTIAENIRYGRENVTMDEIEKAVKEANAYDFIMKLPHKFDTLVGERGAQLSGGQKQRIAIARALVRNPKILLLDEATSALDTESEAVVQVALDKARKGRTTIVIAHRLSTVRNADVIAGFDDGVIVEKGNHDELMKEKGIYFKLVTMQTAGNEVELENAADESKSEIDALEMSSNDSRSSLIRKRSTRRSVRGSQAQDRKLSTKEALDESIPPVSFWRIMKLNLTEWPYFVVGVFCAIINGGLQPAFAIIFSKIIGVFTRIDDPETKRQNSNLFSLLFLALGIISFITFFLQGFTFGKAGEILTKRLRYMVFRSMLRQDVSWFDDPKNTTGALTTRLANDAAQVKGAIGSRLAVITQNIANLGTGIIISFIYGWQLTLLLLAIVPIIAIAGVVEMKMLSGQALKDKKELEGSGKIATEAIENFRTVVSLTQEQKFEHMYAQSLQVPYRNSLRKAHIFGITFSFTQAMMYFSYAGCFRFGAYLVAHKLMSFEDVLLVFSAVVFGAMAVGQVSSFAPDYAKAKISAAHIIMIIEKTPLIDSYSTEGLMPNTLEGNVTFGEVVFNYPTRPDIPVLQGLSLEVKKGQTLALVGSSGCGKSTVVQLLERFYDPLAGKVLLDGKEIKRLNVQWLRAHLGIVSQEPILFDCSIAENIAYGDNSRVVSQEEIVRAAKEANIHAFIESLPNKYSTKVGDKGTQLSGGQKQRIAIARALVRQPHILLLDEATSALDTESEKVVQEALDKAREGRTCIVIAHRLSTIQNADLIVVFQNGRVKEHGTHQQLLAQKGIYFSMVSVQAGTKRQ
Excerpt: as §7

[3] = Bidirectional permeability of sofosbuvir in caco-2 monolayers; settings: human, Caco-2, pH 7.4
Procedure: as §1, §2, §3, §4, §5, §6

[4] = SOF + Comp I versus Comp I alone
[5] = plasma, oral, 100 mg, Comp I alone
[6] = in vivo, plasma analyte after SOF + Comp I
[7] = in vivo, plasma analyte after SOF alone
[8] = co-administration with Compound I versus SOF alone

permeability through caco-2 cells (in words) ([1]; Caco-2): high permeability
Molecule: CC(C)NCC(O)COc1cccc2ccccc12 (stereo not shown) [Propranolol, reference compound]

Papp of sofosbuvir, Forward, Average [1]: 11.1 10^−6 cm/s | Papp of sofosbuvir, Forward, Repat 2 [1]: 0.92 10^−6 cm/s | Papp of sofosbuvir, Forward, Repeat 1 [1]: 0.46 10^−6 cm/s | Papp of sofosbuvir, Reverse, Average [1]: 1.09 10^−6 cm/s | Papp of sofosbuvir, Reverse, Repat 2 [1]: 11.7 10^−6 cm/s | Papp of sofosbuvir, Reverse, Repeat 1 [1]: 10.5 10^−6 cm/s | effect of coincubation on permeability/efflux of sofosbuvir, fold increase [1]: ~2 fold
Molecule: Fc1ccccc1-c1nc2ccn(Cc3ccc(-c4ccc(C(F)(F)F)cc4C(F)(F)F)nn3)cc-2n1 [Compound V, 5-((6-(2,4-bis(trifluoromethyl)phenyl)pyridazin-3-yl)methyl)-2-(2-fluorophenyl)-5H-imidazo[4,5-c]pyridine]

permeability through caco-2 cells (in words) ([1]; Caco-2): indicated appropriate membrane integrity
Molecule: lucifer yellow [reference compound]

The next lines start with the molecule.

Molecule: COC[C@H]1C[C@@H](c2ncc(-c3ccc4c(c3)COc3cc5c(ccc6nc([C@@H]7CC[C@H](C)N7C(=O)[C@@H](NC(=O)OC)C(C)C)[nH]c65)cc3-4)[nH]2)N(C(=O)[C@H](NC(=O)OC)c2ccccc2)C1 [Compound I, methyl {(2S)-1-[(2S,5S)-2-(9-{2-[(2S,4S)-1-{(2R)-2-[(methoxycarbonyl)amino]-2-phenylacetyl}-4-(methoxymethyl)pyrrolidin-2-yl]-1H-imidazol-5-yl}-1,11-dihydroisochromeno[4′,3′:6,7]naphtho[1,2-d]imidazol-2-yl)-5-methylpyrrolidin-1-yl]-3-methyl-1-oxobutan-2-yl}carbamate]
Papp of sofosbuvir, Forward, Average [1]: 0.66 10^−6 cm/s | Papp of sofosbuvir, Forward, Repat 2 [1]: 0.6 10^−6 cm/s | Papp of sofosbuvir, Forward, Repeat 1 [1]: 0.73 10^−6 cm/s | Papp of sofosbuvir, Reverse, Average [1]: 7.39 10^−6 cm/s | Papp of sofosbuvir, Reverse, Repat 2 [1]: 7.56 10^−6 cm/s | Papp of sofosbuvir, Reverse, Repeat 1 [1]: 7.22 10^−6 cm/s | effect of coincubation on permeability/efflux of sofosbuvir, fold increase [1]: ~4 fold | inhibition of BCRP (BCRP): not on other tested transporters | Ctau, Mean ([2]; Comp I alone): 113 ng/mL | AUCtau, % GMR [2, 4]: 112% | Cmax, % GMR [2, 4]: 106% | Ctau, % GMR [2, 4]: 118% | Ctau, Mean ([2]; SOF + Comp I): 135 ng/mL | Cmax [2, 5]: 0.963 µg/mL | AUC [2, 5]: 7.69 µg·h/mL | Cmax ([2]; plasma, oral, Compound I analyte, SOF + Comp I): 1.02 µg/mL | AUC ([2]; plasma, oral, SOF + Comp I): 8.6 µg·h/mL | inhibition of P-gp (P-gp): marked inhibition

Molecule: CC1=CC[C@H](C(=O)N(c2cc(C#CC(C)(C)C)sc2C(=O)O)[C@H]2CC[C@](O)(CO[C@H]3CCOC3)CC2)CC1 [Compound III, 5-(3,3-dimethylbutyn-1-yl)-3-[(cis-4-hydroxy-4-{[(3S)-tetrahydrofuran-3-yloxy]methyl}cyclohexyl) {[(1R)-4-methylcyclohex-3-en-1-yl]carbonyl}amino]thiophene-2-carboxylic acid]
Papp of sofosbuvir, Forward, Average [1]: 0.3 10^−6 cm/s | Papp of sofosbuvir, Forward, Repat 2 [1]: 0.28 10^−6 cm/s | Papp of sofosbuvir, Forward, Repeat 1 [1]: 0.31 10^−6 cm/s | Papp of sofosbuvir, Reverse, Average [1]: 6.93 10^−6 cm/s | Papp of sofosbuvir, Reverse, Repat 2 [1]: 6.82 10^−6 cm/s | Papp of sofosbuvir, Reverse, Repeat 1 [1]: 7.05 10^−6 cm/s | effect of coincubation on permeability/efflux of sofosbuvir, fold increase [1]: ~2 fold

Molecule: CC(C)OC(=O)[C@H](C)N[P@](=O)(OC[C@H]1O[C@@H](n2ccc(=O)[nH]c2=O)[C@](C)(F)[C@@H]1O)Oc1ccccc1 [Sofosbuvir, (S)-isopropyl 2-(((S)-(((2R,3R,4R,5R)-5-(2,4-dioxo-3,4-dihydropyrimidin-1(2H)-yl)-4-fluoro-3-hydroxy-4-methyltetrahydrofuran-2-yl)methoxy)(phenoxy)phosphoryl)amino)propanoate]
Papp A→B at 120 min, 10 μM [3]: 2.5 nm/s | efflux ratio at 120 min, 10 μM [3]: 43.6 | permeability through caco-2 cells (in words) ([1]; sofosbuvir alone at 10 μM, control compounds for acceptance criteria): low permeability | AUCinf, % GMR ([2]; SOF + Comp I versus SOF alone): 238% | AUClast, % GMR ([2]; SOF + Comp I versus SOF alone): 238% | Cmax, % GMR ([2]; SOF + Comp I versus SOF alone): 181% | AUC(0-inf) ([2]; in vivo, plasma analyte after SOF + Comp I (100 mg)): 2.86 µg·h/mL | Cmax [2, 6]: 1.67 µg/mL | AUC(0-t) [2, 6]: 2.85 µg·h/mL | AUC(0-inf) [2, 7]: 1.2 µg·h/mL | Cmax [2, 7]: 0.964 µg/mL | AUC(0-t) [2, 7]: 1.2 µg·h/mL | AUC increase by Compound I [2, 8]: ~2.4 fold | Cmax increase by Compound I [2, 8]: ~1.8 fold

Molecule: C[C@H]1O[C@@H](O[C@H]2[C@@H](O)C[C@H](O[C@H]3[C@@H](O)C[C@H](O[C@H]4CC[C@@]5(C)[C@H](CC[C@@H]6[C@@H]5C[C@@H](O)[C@]5(C)[C@@H](C7=CC(=O)OC7)CC[C@]65O)C4)O[C@@H]3C)O[C@@H]2C)C[C@H](O)[C@@H]1O [digoxin, reference compound]
transport of control transport substrate ([1]; control): Transport was observed
